{
  "source": "patent US20130317092A1",
  "about": "(priority 2007, published 2013)",
  "key": {"Meg-01 cells [1]": {"tested_on": "Meg-01 cells", "test": "Adhesion assay of MEG-01 cells", "assay_type": "cell-based, human", "details": "72 hours"}, "Meg-01 cells [2]": {"tested_on": "Meg-01 cells", "test": "DNA fragmentation by TUNEL assay in Meg-01 cells", "assay_type": "cell-based, human"}, "[3]": {"tested_on": "Murine macrophage RAW 264.7 cells", "test": "Nitric oxide production (nitrite, Griess) by RAW 264.7 macrophages", "assay_type": "cell-based", "description": "Murine macrophage RAW 264.7 cells were cultured in 48 well plates (50×10^3 cells per well). The production of NO by these macrophages was examined following various stimuli (6 repetitions for each treatment) at three time intervals (6, 12 and 24 hours) as depicted in FIGS. 27a, 27b and 27c.\nMouse RAW cells, human U937 cells and primary human macrophages were treated for 24 h with 1 μM CpG oligonucleotides or 1 μg/ml bacterial lipopolysaccharide added to standard growth medium\nInterleukin 6 expression was assayed by QRT-PCR, nitric oxide was measured by Griess assay and prostaglandin E2 levels were measured by R&D ELISA kit according to manufacturer's instructions."}, "AChE-R mRNA": {"tested_on": "AChE-R mRNA", "test": "AChE-R mRNA level (RT-PCR, fluorescent in situ hybridization) in Meg-01 cells", "assay_type": "cell-based, human", "details": "for AChE-R mRNA level on co-administration with Thapsi: Thapsi 10 nM plus oligo 100 nM"}, "AChE-S mRNA": {"tested_on": "AChE-S mRNA", "test": "AChE-S mRNA level (fluorescent in situ hybridization) in Meg-01 cells", "assay_type": "cell-based, human", "details": "for AChE-S mRNA level on co-administration with Thapsi: Thapsi 10 nM plus oligo 100 nM"}, "c-Myc": {"tested_on": "c-Myc", "test": "c-Myc immunohistochemistry in Meg-01 cells", "assay_type": "cell-based, human", "details": "Thapsi plus AChmiON"}, "ASF/SF2": {"tested_on": "ASF/SF2", "test": "Splice factor ASF/SF2 in Meg-01 cells", "assay_type": "cell-based, human", "details": "Thapsi plus AChmiON, data not shown"}, "miRNA181a": {"tested_on": "miRNA181a", "test": "Northern blot of miRNA181a in Meg-01 cells", "assay_type": "cell-based, human", "details": "in the presence or absence of Thapsi and/or AChmiON", "description": "Cultured Meg-01 cells were co-incubated with thapsigargin (10 nM) and synthetic AChmiON (miR-181) (SEQ ID NO:23; at 100 nM) or anti-miR-181 (SEQ ID NO:24 (modified, identical in sequence to SEQ ID NO:2); at 100 nM."}},
  "note": "Entries after “also recorded” stand apart in the source; their conditions may differ.",
  "data": [
    {"substance": "AChmiON: fully 2′-O-methylated oligonucleotide with the sequence of human/murine miRNA-181a (modified SEQ ID NO:23; unmodified SEQ ID NO:1) (AACAUUCAACGCUGUCGGUGAGU; all 2'-O-methyl, backbone not given here)", "values": [
      {"measurement": "cell adhesion", "setting": "Meg-01 cells [1]", "value": "suppressed this effect"},
      {"measurement": "DNA fragmentation / cell death (TUNEL)", "setting": "Meg-01 cells [2]", "value": "increased incidence of positive cells; also recorded: significantly increased apoptosis"},
      {"measurement": "speed of the NO response", "setting": "[3]; RAW 264.7, 6, 12 and 24 hours", "value": "slower than the response to LPS or IFN-γ"},
      {"measurement": "maximal NO effect relative to the LPS effect", "setting": "[3]; RAW 264.7, 24 hour post-treatment, AChmiON 100 nM", "value": "about 80%"},
      {"measurement": "Nitrite concentration reflecting NO production", "setting": "[3]; RAW 264.7, 24 hours, LPS 1 μg/ml, IFN-γ 4 ng/ml, oligos 100 nM", "value": 38, "unit": "µM"},
      {"measurement": "NO production versus control (in words)", "setting": "[3]; RAW 264.7 macrophages", "value": "significantly up-regulated NO production"},
      {"measurement": "AChE-R mRNA level on co-administration with Thapsi", "setting": "AChE-R mRNA", "value": "inhibiting the increase in AChE-R mRNA level"},
      {"measurement": "AChE-R mRNA level by FISH (population distribution)", "setting": "AChE-R mRNA; agent alone", "value": "levels remained unchanged"},
      {"measurement": "AChE-S mRNA level on co-administration with Thapsi", "setting": "AChE-S mRNA", "value": "keeping AChE-S mRNA level above control values"},
      {"measurement": "AChE-S mRNA level by FISH", "setting": "AChE-S mRNA; agent alone", "value": "increased the fraction of cells with high AChE-S levels"},
      {"measurement": "Thapsi-induced c-myc increase on co-treatment", "setting": "c-Myc", "value": "could not prevent the c-myc increase induced by Thapsi"},
      {"measurement": "Thapsi-induced ASF/SF2 on co-treatment", "setting": "ASF/SF2", "value": "suppressed part of this effect"}
    ]},
    {"substance": "anti-AChmiRNA: antisense oligonucleotide complementary to AChmiRNA (SEQ ID NO:2; modified SEQ ID NO:24) (ACUCACCGACAGCGUUGAAUGUU; modified, pattern not given here)", "values": [
      {"measurement": "DNA fragmentation / cell death (TUNEL)", "setting": "Meg-01 cells [2]", "value": "normal level of TUNEL staining"},
      {"measurement": "AChE-R mRNA level on co-administration with Thapsi", "setting": "AChE-R mRNA", "value": "maintaining the increase in AChE-R mRNA"},
      {"measurement": "level of AChmiRNA (miRNA181a) by Northern blot", "setting": "miRNA181a", "value": "decreased the level of anti-AChmiRNA"},
      {"measurement": "level of AChmiRNA (miRNA181a) by Northern blot", "setting": "miRNA181a; listed as anti-miR181", "value": "reducing the level of miRNA181a in the presence or absence of Thapsi and/or AChmiON"},
      {"measurement": "AChE-S mRNA level on co-administration with Thapsi", "setting": "AChE-S mRNA", "value": "prevented the Thapsigargin-induced suppression of AChE-S mRNA"}
    ]}
  ]
}
